Source: patent US9645154B2, “Method for detecting cancer cell” (ARKRAY, Inc., priority 2010, dated 2017)

Columns and labels:
Assay type in all cases: cell-based
[1] = test system: human gastric cancer cells (SNU-1); assay: Labeled sugar incorporation, fluorescence microscopy image analysis (positive rate); details: threshold value 490
Text: In accordance with the conventional method, cultured human fibrosarcoma cell line HT1080 (DS Pharma Biomedical Co., Ltd.) was harvested with trypsin (Invitrogen). The human gastric cancer cell line SNU-1 (ATCC), which is a suspension cell line, was directly harvested without any trypsin treatment. The cell suspension of the harvested cancer cells was centrifuged, and the supernatant was removed. The cells were resuspended with Dulbecco's PBS (−) (Nissui Pharmaceutical Co., Ltd.) and centrifuged, and the supernatant was removed again.
The number of the cells was counted for each cell line using a hemacytometer in accordance with the conventional method, and then 10^5 to 10^6 cells per sample (cell suspension) was aliquoted. Each of the sample was centrifuged to remove the supernatant. Subsequently, 2-NBDG (Wako Pure Chemical Industries, Ltd.; at the final concentration given in Table 3 or 4) dissolved in Dulbecco's PBS (−) was added thereto, and the cells were suspended well. […] The image was captured with a fluorescence microscope (Nikon Corp.) using B-2A filter combination (Nikon Corp.). […] EX (excitation wavelength): 475±15 nm, DM: 505 nm or longer, BA (fluorescence wavelength) 520 nm or longer.
The acquired images were analyzed using an image analysis software NIS-ELEMENTS (trade name, Nikon Corp.) to evaluate the fluorescence intensity of the cell. […]

[2] = test system: human alveolar epithelial cancer cells (NCI-H358); assay: Aminolevulinic acid (with FeCl2 and ascorbic acid) labeling, fluorescence microscopy image analysis (positive rate); details: hemolyzed, 0.3 mM, 60 min, 37° C., threshold value 212
Text: (§1) The number of the cells was counted using a hemacytometer in accordance with the conventional method, and then 10^5 to 10^6 cells per sample (cell suspension) was aliquoted. The sample was centrifuged to remove the supernatant. Subsequently, aminolevulinic acid 5-AMINOLEVULINATE HYDROCHLORIDE (trade name, Cosmo Bio Co., Ltd., at the final concentration given in Table 7 or 8) dissolved in Dulbecco's PBS (+) and FeCl2 and ascorbic acid having the same concentration as that of aminolevulinic acid, respectively, were added thereto, and the cells were suspended well. The number of the cells was adjusted, and then the cells were added dropwise to a 384-well plate. The plate was centrifuged to spin down the cells. The image was captured with a fluorescence microscope (Nikon Corp.).
(§2) The wavelengths for the fluorescence filter set: EX (excitation wavelength): 402±7.5, DM: 430 or longer, BA (fluorescence wavelength): 625±15.
(§3) The acquired images were analyzed using an image analysis software NIS-ELEMENTS (trade name, Nikon Corp.) to evaluate the fluorescence intensity of the cell.
(§4) In a manner similar to Example 4, each of human breast adenocarcinoma cells (Cell line name: MCF-7; DS Pharma Biomedical Co., Ltd.), human colon adenocarcinoma cells (Cell line name: SW620; DS Pharma Biomedical Co., Ltd.), human prostate cancer cells (Cell line name: PC3; DS Pharma Biomedical Co., Ltd.), human alveolar epithelial cancer cells (Cell line name: NCI-H358; DS Pharma Biomedical Co., Ltd.), human gastric cancer cells (Cell line name: SNU-1; ATCC) and human fibrosarcoma cells (Cell line name: HT1080; DS Pharma Biomedical Co., Ltd.) was detected with aminolevulinic acid.

[3] = test system: human colon adenocarcinoma cells (SW620); assay: as above; details: hemolyzed, 0.3 mM, 60 min, 37° C., threshold value 207
Text: as §1, §2, §3, §4

[4] = test system: human breast adenocarcinoma cells (MCF-7); assay: as above; details: hemolyzed, 0.3 mM, 60 min, 37° C., threshold value 268
Text: as §1, §2, §3, §4

[5] = test system: human fibrosarcoma cells (HT1080); assay: as above; details: hemolyzed, 0.3 mM, 60 min, 37° C., threshold value 203
Text: as §1, §2, §3, §4

Row | Compound | Positive rate (Cancer cells) ([1]; hemolyzed, 10 mM, 5 min, 23° C.) | Positive rate (Cancer cells) ([1]; single, Glucose conc.: 1 mM, Temp.: 37° C., Time: 30 min) | Positive rate (Cancer cells) [2] | Positive rate (Cancer cells) [3] | Positive rate (Cancer cells) [4] | Positive rate (Cancer cells) [5]
1 | O=[N+]([O-])c1ccc(N[C@H]2C(O)O[C@H](CO)[C@@H](O)[C@@H]2O)c2nonc12 (stereo partly drawn) [2-NBDG, 2-[N-(7-nitrobenz-2-oxa-1,3-diazol-4-yl)amino]-2-deoxy-D-glucose] | 50.0% | 50.0% | – | – | – | –
2 | NCC(=O)CCC(=O)O [aminolevulinic acid, 5-amino-4-oxopentanoic acid] | – | – | 94.4% | 97.0% | 86.7% | 94.6%
